How the values were obtained:
[1] = xn = mol fraction of the nth substance listed; conditions: 86.5 kPa, Liquid; for viscosity: Capillary tube (Ostwald / Ubbelohde) method; for speed of sound: Frequency=3 MHz, Single path-length method; for mass density: Vibrating tube method
[2] = refractive index (Na D-line) (dimensionless); xn = mol fraction of the nth substance listed; conditions: 86.5 kPa, Liquid, Standard Abbe refractometry

C[N+](C)(C)CCO.[Cl-] [choline chloride] + NCCO
Conditions | mass density, [1] [kg/m3] | refractive index, [2] | speed of sound, [1] [m/s] | viscosity, [1] [mPa·s]
288.15 K, x1 = 0.125 | 1090.06 | 1.4905 | 1989.5 | 50.12
288.15 K, x1 = 0.167 | 1091.28 | 1.4934 | 2006.1 | 59.66
293.15 K, x1 = 0.125 | 1086.89 | 1.4884 | 1977.8 | 42.39
293.15 K, x1 = 0.167 | 1088.11 | 1.4913 | 1994.5 | 52.01
298.15 K, x1 = 0.125 | 1083.96 | 1.4862 | 1965.3 | 35.76
298.15 K, x1 = 0.167 | 1085.18 | 1.4891 | 1982 | 37.69
303.15 K, x1 = 0.125 | 1081 | 1.4844 | 1953 | 30.23
303.15 K, x1 = 0.167 | 1082.22 | 1.4873 | 1970.7 | 38.98

C[N+](C)(C)CCO.[Cl-] [choline chloride] + OCCO
Conditions | mass density, [1] [kg/m3] | refractive index, [2] | speed of sound, [1] [m/s] | viscosity, [1] [mPa·s]
288.15 K, x1 = 0.125 | 1113.73 | 1.467 | 1919.5 | 32.07
288.15 K, x1 = 0.167 | 1115.91 | 1.4732 | 1931.8 | 43.39
293.15 K, x1 = 0.125 | 1111.87 | 1.4649 | 1907.5 | 24.34
293.15 K, x1 = 0.167 | 1113.09 | 1.4711 | 1920.1 | 35.75
298.15 K, x1 = 0.125 | 1109.07 | 1.4628 | 1895.2 | 17.71
298.15 K, x1 = 0.167 | 1110.23 | 1.4687 | 1908.6 | 28.86
303.15 K, x1 = 0.125 | 1106.16 | 1.461 | 1883.5 | 12.19
303.15 K, x1 = 0.167 | 1107.34 | 1.4668 | 1897.1 | 22.72

C[N+](C)(C)CCO.[Cl-] [choline chloride] + OCCOCCO
Conditions | mass density, [1] [kg/m3] | refractive index, [2] | speed of sound, [1] [m/s] | viscosity, [1] [mPa·s]
288.15 K, x1 = 0.125 | 1115.24 | 1.4797 | 1752.1 | 110.12
288.15 K, x1 = 0.167 | 1117.43 | 1.4857 | 1764.7 | 125.8
293.15 K, x1 = 0.125 | 1113.38 | 1.4776 | 1740.1 | 102.39
293.15 K, x1 = 0.167 | 1114.61 | 1.4836 | 1752.3 | 118.16
298.15 K, x1 = 0.125 | 1110.59 | 1.4754 | 1728.4 | 95.76
298.15 K, x1 = 0.167 | 1111.75 | 1.4814 | 1740.3 | 111.27
303.15 K, x1 = 0.125 | 1107.68 | 1.4735 | 1716.3 | 90.23
303.15 K, x1 = 0.167 | 1108.86 | 1.4795 | 1728.4 | 105.11

OCCNCCO [diethanolamine] + C[N+](C)(C)CCO.[Cl-]
Conditions | mass density, [1] [kg/m3] | refractive index, [2] | speed of sound, [1] [m/s] | viscosity, [1] [mPa·s]
288.15 K, x2 = 0.125 | 1102.46 | 1.4892 | 1826.4 | 506.3
288.15 K, x2 = 0.167 | 1104.58 | 1.492 | 1839 | 528.22
293.15 K, x2 = 0.125 | 1099.49 | 1.4871 | 1812.5 | 498.57
293.15 K, x2 = 0.167 | 1101.42 | 1.4902 | 1825.7 | 520.58
298.15 K, x2 = 0.125 | 1096.43 | 1.485 | 1798.8 | 491.94
298.15 K, x2 = 0.167 | 1098.48 | 1.4877 | 1811.7 | 513.69
303.15 K, x2 = 0.125 | 1092.86 | 1.4831 | 1784 | 486.41
303.15 K, x2 = 0.167 | 1095.52 | 1.4861 | 1799.1 | 507.54

OCCN(CCO)CCO [triethanolamine] + C[N+](C)(C)CCO.[Cl-]
Conditions | mass density, [1] [kg/m3] | refractive index, [2] | speed of sound, [1] [m/s] | viscosity, [1] [mPa·s]
288.15 K, x2 = 0.125 | 1124.87 | 1.49 | 1715.5 | 522.91
288.15 K, x2 = 0.167 | 1125.76 | 1.4926 | 1734.7 | 552.67
293.15 K, x2 = 0.125 | 1122.22 | 1.4877 | 1703.1 | 515.18
293.15 K, x2 = 0.167 | 1122.89 | 1.4905 | 1723.7 | 545.03
298.15 K, x2 = 0.125 | 1119.73 | 1.4856 | 1691.2 | 508.55
298.15 K, x2 = 0.167 | 1120.12 | 1.4883 | 1712.2 | 538.14
303.15 K, x2 = 0.125 | 1116.88 | 1.4835 | 1678.5 | 503.02
303.15 K, x2 = 0.167 | 1117.58 | 1.4865 | 1700.5 | 531.99

OCCOCCOCCO [triethylene glycol] + C[N+](C)(C)CCO.[Cl-]
Conditions | mass density, [1] [kg/m3] | refractive index, [2] | speed of sound, [1] [m/s] | viscosity, [1] [mPa·s]
288.15 K, x2 = 0.125 | 1118.76 | 1.492 | 1641.2 | 144.03
288.15 K, x2 = 0.167 | 1120.95 | 1.498 | 1660.5 | 160.22
293.15 K, x2 = 0.125 | 1116.27 | 1.4912 | 1629.7 | 136.3
293.15 K, x2 = 0.167 | 1118.12 | 1.4971 | 1648.4 | 152.58
298.15 K, x2 = 0.125 | 1113.74 | 1.4887 | 1617.8 | 129.67
298.15 K, x2 = 0.167 | 1115.27 | 1.4947 | 1636.8 | 145.69
303.15 K, x2 = 0.125 | 1111.2 | 1.4872 | 1605.8 | 124.14
303.15 K, x2 = 0.167 | 1112.38 | 1.4928 | 1624.9 | 139.54

Source: the NIST ThermoML archive (doi:10.1021/acs.jced.9b00313)
